Assay results from patent publication US20260083721A1, “7-CYANO-8-HYDROXYQUINOLINE DERIVATIVE, PREPARATION METHOD THEREFOR AND MEDICAL USE THEREOF” (Jiangsu Yahong Meditech Co., Ltd., priority 2022, published 2026).
≈ marks a conversion by molar mass, not a printed value.

Assays:
Assay type in all cases: cell-based
[1] = test system: Escherichia coli ATCC25922; experiment: MIC by broth microdilution, E. coli ATCC 25922; conditions: quality control strain, CAMHB, 35±2° C., 20 hours, drug concentration range 128 mg/L to 0.06 mg/L, read-out: inhibitory MIC value, Escherichia coli ATCC25922
Source text: (§1) The test bacteria were 2 strains of carbapenem-resistant Escherichia coli (18-W09-093 and 18-W18-070), 2 strains of carbapenem-resistant Acinetobacter baumannii (18-W15-036 and 18-W13-081), 1 strain of methicillin-resistant Staphylococcus aureus (19-W03-012) and 1 strain of methicillin-sensitive Staphylococcus aureus (19-W01-012), isolated clinically, with duplicate strains isolated from the same patient being excluded. Besides, there were 3 quality control strains, namely Escherichia co/i ATCC 25922, Acinetobacter baumannii ATCC 19606, and Staphylococcus aureus ATCC 29213. The above strains were all provided by Shanghai GenoMatrix Medical Laboratory Co., Ltd.
(§2) The MIC of the compound of the present invention on clinically isolated strains was assayed by the broth microdilution method according to the relevant documents from the Clinical and Laboratory Standards Institute (CLSI) of United States. • 3.1 Preparation of antimicrobial drugs: the compounds of the present invention were all dissolved with DMSO. The drug concentration ranged from 128 mg/L to 0.06 mg/L. • 3.2 Culture medium: cation adjusted Mueller-Hinton broth (CAMHB) was used. • 3.3 Inoculation amount of bacteria: the isolated pure culture of test bacteria cultured overnight was adjusted to 0.5 McFarland turbidity by direct colony suspension and diluted 100 folds, and the final inoculation amount was 10^5 CFU/mL. • 3.4 Culture conditions: the bacteria were cultured in air at 35±2° C. for 20 hours.
(§3) The results of the drug sensitivity test were interpretated according to the standards of CLSI M100-ED29:2019.
(§4) The statistical analysis of the results of the drug sensitivity test was done by using WHONET version 5.6 software.

[2] = test system: methicillin-sensitive Staphylococcus aureus 19-W01-012; experiment: MIC by broth microdilution, methicillin-sensitive S. aureus 19-W01-012; conditions: methicillin-sensitive clinical isolate, CAMHB, 35±2° C., 20 hours, drug concentration range 128 mg/L to 0.06 mg/L, read-out: inhibitory MIC value, Staphylococcus aureus 19-W01-012
Source text: as §1, §2, §3, §4

[3] = test system: carbapenem-resistant Escherichia coli 18-W18-070; experiment: MIC by broth microdilution, carbapenem-resistant E. coli 18-W18-070; conditions: carbapenem-resistant clinical isolate, CAMHB, 35±2° C., 20 hours, drug concentration range 128 mg/L to 0.06 mg/L, read-out: inhibitory MIC value, Escherichia coli 18-W18-070
Source text: as §1, §2, §3, §4

[4] = test system: Acinetobacter baumannii ATCC19606; experiment: MIC by broth microdilution, A. baumannii ATCC 19606; conditions: quality control strain, CAMHB, 35±2° C., 20 hours, drug concentration range 128 mg/L to 0.06 mg/L, read-out: inhibitory MIC value, Acinetobacter baumannii ATCC19606
Source text: as §1, §2, §3, §4

[5] = test system: carbapenem-resistant Escherichia coli 18-W09-093; experiment: MIC by broth microdilution, carbapenem-resistant E. coli 18-W09-093; conditions: carbapenem-resistant clinical isolate, CAMHB, 35±2° C., 20 hours, drug concentration range 128 mg/L to 0.06 mg/L, read-out: inhibitory MIC value, Escherichia coli 18-W09-093
Source text: as §1, §2, §3, §4

[6] = test system: carbapenem-resistant Acinetobacter baumannii 18-W13-081; experiment: MIC by broth microdilution, carbapenem-resistant A. baumannii 18-W13-081; conditions: carbapenem-resistant clinical isolate, CAMHB, 35±2° C., 20 hours, drug concentration range 128 mg/L to 0.06 mg/L, read-out: inhibitory MIC value, Acinetobacter baumannii 18-W13-081
Source text: as §1, §2, §3, §4

[7] = test system: Staphylococcus aureus ATCC29213; experiment: MIC by broth microdilution, S. aureus ATCC 29213; conditions: quality control strain, CAMHB, 35±2° C., 20 hours, drug concentration range 128 mg/L to 0.06 mg/L, read-out: inhibitory MIC value, Staphylococcus aureus ATCC29213
Source text: as §1, §2, §3, §4

[8] = test system: methicillin-resistant Staphylococcus aureus 19-W03-012; experiment: MIC by broth microdilution, methicillin-resistant S. aureus 19-W03-012; conditions: methicillin-resistant clinical isolate, CAMHB, 35±2° C., 20 hours, drug concentration range 128 mg/L to 0.06 mg/L, read-out: inhibitory MIC value, Staphylococcus aureus 19-W03-012
Source text: as §1, §2, §3, §4

[9] = test system: carbapenem-resistant Acinetobacter baumannii 18-W15-036; experiment: MIC by broth microdilution, carbapenem-resistant A. baumannii 18-W15-036; conditions: carbapenem-resistant clinical isolate, CAMHB, 35±2° C., 20 hours, drug concentration range 128 mg/L to 0.06 mg/L, read-out: inhibitory MIC value, Acinetobacter baumannii 18-W15-036
Source text: as §1, §2, §3, §4

Row | SMILES | MIC [1] | MIC [2] | MIC [3] | MIC [4] | MIC [5] | MIC [6] | MIC [7] | MIC [8] | MIC [9]
1 | N#Cc1c(Cl)c(Cl)c2cccnc2c1O [Compound 7, 5,6-dichloro-7-cyano-8-hydroxyquinoline] | 32 µg/mL (≈ 134 µM) | 0.5 µg/mL (≈ 2.09 µM) | > 64 µg/mL | 2 µg/mL (≈ 8.37 µM) | > 64 µg/mL | 4 µg/mL (≈ 16.7 µM) | 1 µg/mL (≈ 4.18 µM) | 0.5 µg/mL (≈ 2.09 µM) | 32 µg/mL (≈ 134 µM)
2 | N#Cc1ccc2ccc(F)nc2c1O [Compound 4, 2-fluoro-7-cyano-8-hydroxyquinoline] | 8 µg/mL (≈ 42.5 µM) | 16 µg/mL (≈ 85 µM) | 16 µg/mL (≈ 85 µM) | 4 µg/mL (≈ 21.3 µM) | 16 µg/mL (≈ 85 µM) | 8 µg/mL (≈ 42.5 µM) | 16 µg/mL (≈ 85 µM) | 16 µg/mL (≈ 85 µM) | 8 µg/mL (≈ 42.5 µM)
3 | N#Cc1cc(C(=O)O)c2cccnc2c1O [Compound 8, 7-cyano-8-hydroxyquinoline-5-carboxylic acid] | > 64 µg/mL | > 64 µg/mL | > 64 µg/mL | > 64 µg/mL | > 64 µg/mL | > 64 µg/mL | > 64 µg/mL | > 64 µg/mL | > 64 µg/mL
4 | N#Cc1cc(Br)c2cccnc2c1O [Compound 1, 5-bromo-7-cyano-8-hydroxyquinoline] | 8 µg/mL (≈ 32.1 µM) | 4 µg/mL (≈ 16.1 µM) | 32 µg/mL (≈ 128 µM) | 4 µg/mL (≈ 16.1 µM) | 32 µg/mL (≈ 128 µM) | 4 µg/mL (≈ 16.1 µM) | 4 µg/mL (≈ 16.1 µM) | 4 µg/mL (≈ 16.1 µM) | 16 µg/mL (≈ 64.2 µM)
5 | Cc1ccnc2c(O)c(C#N)cc(Br)c12 [Compound 6, 4-methyl-5-bromo-7-cyano-8-hydroxyquinoline] | 8 µg/mL (≈ 30.4 µM) | 4 µg/mL (≈ 15.2 µM) | 32 µg/mL (≈ 122 µM) | 4 µg/mL (≈ 15.2 µM) | 32 µg/mL (≈ 122 µM) | 4 µg/mL (≈ 15.2 µM) | 4 µg/mL (≈ 15.2 µM) | 2 µg/mL (≈ 7.6 µM) | 32 µg/mL (≈ 122 µM)
6 | N#Cc1cc(C(F)(F)F)c2cccnc2c1O [Compound 2, 5-trifluoromethyl-7-cyano-8-hydroxyquinoline] | 32 µg/mL (≈ 134 µM) | 4 µg/mL (≈ 16.8 µM) | 64 µg/mL (≈ 269 µM) | 16 µg/mL (≈ 67.2 µM) | 64 µg/mL (≈ 269 µM) | 32 µg/mL (≈ 134 µM) | 8 µg/mL (≈ 33.6 µM) | 4 µg/mL (≈ 16.8 µM) | 64 µg/mL (≈ 269 µM)
7 | Cc1ccnc2c(O)c(C#N)cc(Cl)c12 [Compound 5, 4-methyl-5-chloro-7-cyano-8-hydroxyquinoline] | 8 µg/mL (≈ 36.6 µM) | 4 µg/mL (≈ 18.3 µM) | 16 µg/mL (≈ 73.2 µM) | 4 µg/mL (≈ 18.3 µM) | 32 µg/mL (≈ 146 µM) | 2 µg/mL (≈ 9.15 µM) | 4 µg/mL (≈ 18.3 µM) | 2 µg/mL (≈ 9.15 µM) | 8 µg/mL (≈ 36.6 µM)
8 | N#Cc1cc(Cl)c2cccnc2c1O [Compound 9, 5-chloro-7-cyano-8-hydroxyquinoline] | 16 µg/mL (≈ 78.2 µM) | 8 µg/mL (≈ 39.1 µM) | 32 µg/mL (≈ 156 µM) | 4 µg/mL (≈ 19.5 µM) | 32 µg/mL (≈ 156 µM) | 8 µg/mL (≈ 39.1 µM) | 8 µg/mL (≈ 39.1 µM) | 8 µg/mL (≈ 39.1 µM) | 16 µg/mL (≈ 78.2 µM)
9 | Cc1cc(C#N)c(O)c2ncccc12 [Compound A, reference compound] | 8 µg/mL (≈ 43.4 µM) | 4 µg/mL (≈ 21.7 µM) | 16 µg/mL (≈ 86.9 µM) | 4 µg/mL (≈ 21.7 µM) | 8 µg/mL (≈ 43.4 µM) | 4 µg/mL (≈ 21.7 µM) | 4 µg/mL (≈ 21.7 µM) | 4 µg/mL (≈ 21.7 µM) | 8 µg/mL (≈ 43.4 µM)
10 | Cc1ccnc2c(O)c(C#N)ccc12 [Compound 3, 4-methyl-7-cyano-8-hydroxyquinoline] | 8 µg/mL (≈ 43.4 µM) | 8 µg/mL (≈ 43.4 µM) | 16 µg/mL (≈ 86.9 µM) | 8 µg/mL (≈ 43.4 µM) | 16 µg/mL (≈ 86.9 µM) | 8 µg/mL (≈ 43.4 µM) | 8 µg/mL (≈ 43.4 µM) | 8 µg/mL (≈ 43.4 µM) | 8 µg/mL (≈ 43.4 µM)
